Reference: patent publication US7183267B2, “β-lactamase inhibitors and methods of use thereof” (priority 2003, dated 2007)
In brackets after ≈: the same amount, converted by molar mass.

Tests used:
TEM-1 β-lactamase [1] = target: T1, TEM-1 β-lactamase (Escherichia coli, UniProt P62593); experiment: TEM-1 β-lactamase inhibition assay (nitrocefin hydrolysis, 486 nm); format: biochemical
Protocol: (§1) The inhibition of TEM-1 β-lactamase was determined spectrophotometrically. B-lactamase activity was followed by measuring the hydrolysis of nitrocefin, [3-(2,4-dinitrostyryl)-(6R, 7R)-7-(2-thienylacetamido)-ceph-3-em-4-carboxylic acid, E-isomer], (Calbiochem, San Diego, Calif., USA) at 486 nm. Inhibition assays were performed at 25° C. in 50 mM sodium phosphate, 5% DMSO, pH 7.0. […] Inhibitor was added to the enzyme and incubated for ten minutes before the addition of substrate. Inhibition constants (Ki) for the inhibitors are obtained at the desired temperature and solvent conditions by measuring the rate of substrate hydrolysis at increasing amounts of inhibitors.
The competitive inhibition of β-lactamase was determined spectrophotometrically using a Varian (Walnut Creek, Calif.) Cary 100 UV-Visible spectrophotometer. β-lactamase activity was followed by measuring the hydrolysis of nitrocefin, [3-(2,4-dinitrostyryl)-(6R, 7R)-7-(2-thienylacetamido)-ceph-3-em-4-carboxylic acid, E-isomer], (Calbiochem, San Diego, Calif.) at 486 nm. Inhibition assays were performed at 25° C. in 50 mM sodium phosphate, 5% DMSO, pH 7.0. […] Penicillin G (Sigma, St. Louis, Mo.) was also used as a substrate to determine KM and kcat.
Inhibitor was added to protein and incubated for ten minutes before the addition of substrate. Inhibition constants were determined by measuring the loss of P-lactamase activity with increasing inhibitor concentrations and fitting the data to standard equations for competitive inhibition.
(§2) These methods can also be used to express and assay recombinant TEM-1 variant of β-lactamase.

β-lactamase mutant E104K = β-lactamase mutant E104K (Escherichia coli, UniProt P62593, E102K); format: biochemical; details: number higher than 1 reflects a loss of potency against mutant
Protocol: as §1
(§3) Three of the most important mutations are M69I, R244S and E104K.

β-lactamase mutant M69I = β-lactamase mutant M69I (Escherichia coli, UniProt P62593, M67I); format: biochemical; details: number higher than 1 reflects a loss of potency against mutant
Protocol: as §1, §3

β-lactamase mutant R244S = β-lactamase mutant R244S (Escherichia coli, UniProt P62593, R241S); format: biochemical; details: number higher than 1 reflects a loss of potency against mutant
Protocol: as §1, §3

β-lactamase wt = β-lactamase wt (Escherichia coli, UniProt P62593); experiment: Isothermal titration calorimetry, binding enthalpy, wild type
Protocol: (§4) The binding of the compounds of the present invention to β-lactamase was also measured by isothermal titration calorimetry.
(§5) These experiments, in combination with the inhibition assays, indicate that the compounds identified in this disclosure bind to the wild type as well as drug resistant beta lactamases with favorable binding enthalpies. This is a very important characteristic from the point of view of further optimization since it facilitates the achievement of extremely high affinities and low susceptibilities to drug resistant mutations and naturally occurring polymorphisms.
(§6) Isothermal titration calorimetry was performed on a high-precision VP-ITC titration calorimeter (Microcal Inc., Northampton, Mass.). β-Lactamase solutions were titrated with inhibitors in 50 mM sodium phosphate, 2% DMSO, pH 7.0, with β-lactamase concentrations ranging from 15 to 25 μM and inhibitor concentrations ranging from 300 to 1000 μM. The heat evolved from each injection was obtained by integrating the calorimetric signal. Heat of binding was obtained as the difference between the heat of reaction and the heat of inhibitor dilution. Data were analyzed using Origin 7.0 (OriginLab Corporation, Northampton, Mass.).

β-lactamase M69I = β-lactamase M69I (Escherichia coli, UniProt P62593, M67I); experiment: Isothermal titration calorimetry, binding enthalpy, M69I mutant
Protocol: as §4, §5, §6

β-lactamase E104K = β-lactamase E104K (Escherichia coli, UniProt P62593, E102K); experiment: Isothermal titration calorimetry, binding enthalpy, E104K mutant
Protocol: as §4, §5, §6

β-lactamase R244S = β-lactamase R244S (Escherichia coli, UniProt P62593, R241S); experiment: Isothermal titration calorimetry, binding enthalpy, R244S mutant
Protocol: as §4, §5, §6

TEM-1 β-lactamase [2] = target: T1, TEM-1 β-lactamase; experiment: Isothermal titration calorimetry, binding to TEM-1 β-lactamase (Example 17); details: ITC
Protocol: as §6, §2
Also shown are the results obtained for β-lactamase variant TEM-1.

[3] = test system: methicillin resistant S. aureus ATCC 33591 (MRSA-ATCC); experiment: MIC assay, broth microdilution, MRSA-ATCC; format: cell-based; details: for MIC: Staphylococcus aureus, 24 h
Protocol: (1) methicillin resistant S. aureus ATCC 33591 (MRSA-ATCC). This strain was obtained from American Type Culture Collection (ATCC), Manassas, Md.;
(§7) The strains were processed according to procedures recommended by ATCC, or procedures that are routinely used. Single colonies of each organism were picked for purification to generate pure working cultures. Prior to each experiment each strain was subcultured on a fresh Mueller-Hinton agar plate (MHA).
(§8) Inocula for the MIC assays were prepared by transferring a tiny portion of one colony from a MHA plate to 2 ml of Mueller-Hinton broth (MHB) such that the estimated cell density was about 10^7 colony forming unit (CFU)/ml. This cell suspension was then further diluted 10-fold (to 10^6 CFU/ml) by transferring the 2 ml cell suspension to 18 ml of MHB. Addition of 50 μl of this dilute cell suspension to 50 μl of growth medium yielded the desired cell density, namely about 5×10^4 CFU/well, or 5×10^5 CFU/ml.
(§9) The MIC value of oxacillin was determined using the broth microdilution procedure recommended by the National Committee of Clinical Laboratory Standards (NCCLS, 2000).
(§10) The MIC experiments were performed in duplicate in 96-well microtiter plates using MHB. A stock solution of 2.6 mg/0.5 ml was prepared in dimethylsulfoxide (DMSO). A total of 8 two-fold serial dilutions were made with DMSO. Initial oxacillin doses used were (μg/ml): 64, 32, 16, 8, 4, 2, 1, and 0.5. Doses were adjusted in the confirmatory experiment, if needed, in order to establish an actual MIC value.
(§11) To each well of a 96 well microtiter plate was added 47.5 μl of MHB. A volume of 2.5 μl of each dilution of oxacillin was then transferred to appropriate wells containing the medium. All wells, except the sterility control wells, were then inoculated with 50 μl of a diluted cell suspension to give a final volume of 100 μl and a final cell density of 5×10^4 CFU/well. The volume in the sterility control wells was adjusted to 100 μl with MHB. A sterile pipette tip was used to mix the contents of each well (one tip was used going from the low to the high concentration in the same column). The microtiter plates were covered with the lids and were placed in large Stratagene Big Blue plates (Cat. # 400041). Four large kimwipes moistened with tap water were placed near the edges of the Stratagene plates to prevent evaporation of the medium. The microtiter plates were incubated for at least 24 hours at 35° C. The plates were then evaluated for growth in each well. Controls included: medium sterility and negative control (medium and bacteria only).
(§12) The procedure used to determine the antimicrobial activity of the compounds of the present invention was identical to the broth microdilution procedure described above with the exception of the preparation of the stock solutions. Stock solution at concentration of 40.96 mg/0.5 ml was prepared in DMSO for each of the compounds. A total of 8 two-fold dilutions were then made in DMSO. A volume of 2.5 μl of each dilution was delivered to appropriate wells. The initial doses used were (μg/ml): 512, 256, 128, 64, 32, 16, 8, and 4.
(§13) A numerical code was used to evaluate the extent of growth as indicated below. • 0: absence of growth • 1: barely visible (faint) growth • 2: fair growth but less than the negative solvent control • 3: growth is equivalent to the negative solvent control.
(§14) The lowest dose at which no visible growth is observed was determined to be the MIC value.
(§15) MIC assays were performed with oxacillin and the four compounds. Each of the compounds was tested at the following 8 doses (μg/ml): 512, 256, 128, 64, 32, 16, 8, and 4. Oxacillin was tested at the following 8 doses (μg/ml): 64, 32, 16, 8, 4, 2, 1, and 0.5.

[4] = test system: methicillin sensitive S. aureus ATCC 25923 (MSSA); experiment: MIC assay, broth microdilution, MSSA; format: cell-based; details: for MIC: Staphylococcus aureus, 24 h
Protocol: (3) methicillin sensitive S. aureus ATCC 25923 (MSSA). This strain was obtained from ATCC and was used as a control.
as §7, §8, §9, §10, §11, §12, §13, §14, §15

[5] = test system: methicillin resistant S. aureus from Stanford University Hospital (MRSA-SU); experiment: MIC assay, broth microdilution, MRSA-SU; format: cell-based; details: for MIC: Staphylococcus aureus, MRSA, 24 h
Source text: (2) methicillin resistant S. aureus from Stanford University Hospital Clinical Microbiology/Virology Laboratory (MRSA-SU). […] Such Staphylococci are also resistant to all penicillins, and all cephalosporins, in addition to all β-lactamase inhibitor combinations (including ampicillin/sulbactarn, amoxicillin/clavulanic acid, piperacillin/tazobactam), imipenem, and meropenem; and
as §7, §8, §9, §10, §11, §12, §13, §14, §15

[6] = Ki, 25° C., 50 mM sodium phosphate, 5% DMSO, pH 7.0, enzyme 5 nM, nitrocefin 167 μM
[7] = Ki from Lineweaver-Burke Analysis, values in parenthesis, Lineweaver-Burke analysis

Structure (SMILES) | Ki (TEM-1 β-lactamase [1]; [6]) [µM] | Loss of potency: ratio of the inhibitory constant between mutant and wild type (Potencywt/Potencymutant), E104K (β-lactamase mutant E104K) | Loss of potency: ratio of the inhibitory constant between mutant and wild type (Potencywt/Potencymutant), M69I (β-lactamase mutant M69I) | Loss of potency: ratio of the inhibitory constant between mutant and wild type (Potencywt/Potencymutant), R244S (β-lactamase mutant R244S) | melting point [°C] | Ki (TEM-1 β-lactamase [1]; [7]) [µM] | ΔH wt (β-lactamase wt) [kcal/mol] | ΔH M69I (β-lactamase M69I) [kcal/mol] | ΔH E104K (β-lactamase E104K) [kcal/mol] | ΔH R244S (β-lactamase R244S) [kcal/mol] | also measured
O=C(Oc1ccc([N+](=O)[O-])cc1)c1cc(B(O)O)cc([N+](=O)[O-])c1 [Compound (1a), 3-(4-Nitrophenoxycarbonyl)-5-nitrophenylboronic acid] | 80 ± 9 | 0.39 | 0.43 | 0.44 | 205 to 207 | – | – | – | – | – | –
O=C(Oc1cccc([N+](=O)[O-])c1)c1cc(B(O)O)cc([N+](=O)[O-])c1 [Compound (1c), 3-(3-Nitrophenoxycarbonyl)-5-nitrophenylboronic acid] | 39 ± 7 | 0.56 | 1.0 | 0.52 | 185 to 187 | – | – | – | – | – | –
COc1ccc(OC(=O)c2cc(B(O)O)cc([N+](=O)[O-])c2)cc1 [Compound (1d), 3-(4-Methoxyphenoxycarbonyl)-5-nitrophenylboronic acid] | 42 ± 7 | 0.55 | 0.60 | 0.62 | 67 | – | – | – | – | – | –
N#Cc1ccccc1OC(=O)c1cc(B(O)O)cc([N+](=O)[O-])c1 [Compound (1g), 3-(2-Cyanophenoxycarbonyl)-5-nitrophenylboronic acid] | 37 ± 3 | 0.32 | 0.40 | 0.26 | – | 1.37 | -5.52 | -2.46 | -6.397 | -8.2 | –
O=C(Oc1c(Cl)cccc1[N+](=O)[O-])c1cc(B(O)O)cc([N+](=O)[O-])c1 [Compound (1h), 3-(2-Chloro-6-nitrophenoxycarbonyl)-5-nitrophenylboronic acid] | 9.5 ± 0.8 | 0.77 | 1.2 | 0.86 | – | 0.65 | -1.14 | -0.953 | -1.896 | -11.931 | Ki (TEM-1 β-lactamase [1]; Ki, TEM-1 β-lactamase): 9.5 µM; ΔG (TEM-1 β-lactamase [2]): -6.614 kcal/mol; ΔH (TEM-1 β-lactamase [2]): -1.14 kcal/mol; −TΔS (TEM-1 β-lactamase [2]): -5.474 kcal/mol
O=C(Oc1ccccc1Cl)c1cc(B(O)O)cc([N+](=O)[O-])c1 [Compound (1j), 3-(2-Chlorophenoxycarbonyl)-5-nitrophenylboronic acid] | 28 ± 2 | 0.15 | 0.33 | 0.37 | – | 1.31 | -2.145 | -1.693 | -2.756 | -6.877 | –
O=C(O)c1cccc(B(O)O)c1 [Compound F1203] | – | – | – | – | – | – | – | – | – | – | bacteriotoxicity at high dose ([3]; 512 μl/ml, MRSA-ATCC): not bacteriotoxic; MIC [3]: > 512 µg/mL; bacteriotoxicity at high dose ([4]; 512 μl/ml, MSSA): not bacteriotoxic; MIC [4]: > 512 µg/mL; bacteriotoxicity at high dose ([5]; 512 μl/ml, MRSA-SU): not bacteriotoxic; MIC [5]: > 512 µg/mL
O=C(Oc1ccccc1[N+](=O)[O-])c1cc(B(O)O)cc([N+](=O)[O-])c1 [Compound F1204] | – | – | – | – | – | – | – | – | – | – | MIC [3]: 256 µg/mL (≈ 771 µM); MIC [4]: 512 µg/mL (≈ 1540 µM); MIC [5]: 512 µg/mL
COC(=O)c1cc(B(O)O)cc([N+](=O)[O-])c1 [Compound F1212] | – | – | – | – | – | – | -4.7 | -3.3 | -4.5 | -8.9 | Ki (TEM-1 β-lactamase [1]; 25° C., 50 mM sodium phosphate, 5% DMSO, pH 7.0, enzyme 5 nM, nitrocefin 167 μM): 95 µM
